The values that follow come from BindingDB's records for doi:10.1016/j.ejmech.2016.03.076 (Chinese Academy of Sciences (Cas), 2016).

Broadly, the IC50 is the concentration that inhibits the measured activity by half.

Assay [1] can be described thus: Inhibition of c-Met in human EBC-1 cells assessed as reduction in cell proliferation after 72 hrs by SRB or MTT assay.
The nature of assay [2]: Inhibition of c-Met in human MKN45 cells assessed as reduction in cell proliferation after 72 hrs by SRB or MTT assay. In general terms: Formazan colour is commonly taken as a measure of viable cells.
A short description of assay [3]: Inhibition of TPR-MET in mouse BAF3 cells assessed as reduction in cell proliferation after 72 hrs by SRB or MTT assay.

For the compound `Fc1ccc(-c2cnc3nnc(C(F)(F)c4ccc5ncccc5c4)n3n2)cc1`, the IC50 in assay [1] amounted to 0.85 nM; in assay [2] it was 0.46 nM.

As to `Cn1cc(-c2ccc3nnc(C(F)(F)c4ccc5ncccc5c4)n3n2)cn1` [US9062045, Comparator No. 1 (JNJ-38877605)], the IC50 in assay [1] was 5.5 nM; in assay [2], 9.5 nM; in assay [3] it was 8.6 nM.
